Assay results from article PMC7997574, “Lead Optimization of Benzoxazolone Carboxamides as Orally Bioavailable and CNS Penetrant Acid Ceramidase Inhibitors” (Journal of Medicinal Chemistry, 2020).
“And” between values parts separate entries of the source, which are not always exact repeats. Equal values may be shown once.

What was measured:
[1] = In vitro plasma stability study; assay type: in vitro ADME; conditions: mouse plasma; read-out: m-plasma t1/2
How it was run: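 Compound at 2 μM final incubated in mouse plasma at 37 °C for up to 120 min, sampled at 0–120 min and quenched in cold MeCN with internal standard. Remaining compound quantified by LC/MS/MS; t1/2 fitted from response vs time; mean of ≥2 experiments.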

[2] = In vitro microsomal stability study; assay type: in vitro ADME; conditions: mouse liver microsomes
How it was run: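 Test compound at 4.6 μM final was incubated at 37 °C with mouse liver microsomes in 0.1 M Tris HCl (pH 7.4), with an NADPH/G6P/G6PDH/MgCl2 cofactor system, and sampled at 0–60 min. Parent remaining relative to t = 0 was measured by LC/MS/MS. t1/2 came from one-phase decay regression, as the mean of at least two independent experiments.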

[3] = target: T1, acid sphingomyelinase (ASM) (Homo sapiens, UniProt P17405); test: In vitro hASM assay; assay type: biochemical; conditions: 1 and 10 μM
T1 construct: 1.3 nM purified human full-length ASM enzyme (purified in house); made in house
T1 sequence (P17405 47-631): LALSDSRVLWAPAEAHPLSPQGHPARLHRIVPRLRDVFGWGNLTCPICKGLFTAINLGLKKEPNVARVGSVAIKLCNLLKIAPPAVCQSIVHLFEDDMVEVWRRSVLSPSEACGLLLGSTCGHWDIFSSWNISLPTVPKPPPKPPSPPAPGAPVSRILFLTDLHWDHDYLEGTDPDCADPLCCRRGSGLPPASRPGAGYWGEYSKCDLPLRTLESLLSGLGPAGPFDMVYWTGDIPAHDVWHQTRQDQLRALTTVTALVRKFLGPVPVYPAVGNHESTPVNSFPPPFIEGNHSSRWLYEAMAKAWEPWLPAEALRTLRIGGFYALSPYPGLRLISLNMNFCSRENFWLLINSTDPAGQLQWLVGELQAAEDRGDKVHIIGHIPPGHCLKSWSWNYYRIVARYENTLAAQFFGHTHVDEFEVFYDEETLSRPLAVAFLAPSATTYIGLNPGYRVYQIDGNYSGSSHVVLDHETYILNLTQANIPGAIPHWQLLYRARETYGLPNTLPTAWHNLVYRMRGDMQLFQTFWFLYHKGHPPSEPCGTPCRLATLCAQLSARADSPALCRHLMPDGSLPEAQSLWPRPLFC
Procedure: hASM activity measurement was conducted using the fluorogenic substrate 6-hexadecanoylamino-4-methylumbelliferylphosphorylcholine (HMU-PC, Toronto Research Chemicals) at 0.5 μM and 1.3 nM purified human full-length ASM enzyme (purified in house) in a buffer containing 50 mM citrate, 150 mM NaCl, 5 mM ZnCl2, and 0.43 mM Triton X-100 at pH 4.7 in a final volume of 50 μL. The reaction mixtures were incubated for 45 min at rt and stopped by the addition of 150 μL of 1 M glycine at pH 12.5. The formation of the fluorescent product was monitored by a plate reader at excitation/emission wavelengths of 385/450 nm. The average hASM activity was calculated from two independent experiments, each performed in two technical replicates.

[4] = In vitro mouse brain tissue protein binding (equilibrium dialysis); assay type: in vitro ADME
Procedure: Studies were performed by the DMPK Group at Shanghai ChemPartner Co., Ltd., using the equilibrium dialysis method. Values are the mean of two technical replicates.

CC(C)CNC(=O)n1c(=O)oc2cc(C3CCN(C)CC3)ccc21 [22m, N-Isobutyl-6-(1-methyl-4-piperidyl)-2-oxo-1,3-benzoxazole-3-carboxamide]
half-life at 2 µM [1]: 1.33 h | half-life at 2 μM [1]: > 1 h | m-LM [% at 60 min] ([2]; % remaining at 60 min): 76% and 80% | half-life at 4.6 μM ([2]; pH 7.4, read-out: m-LM t1/2): > 1 h | effect on activity of ASM [3]: no effect | Fb, u (%) brain fraction unbounded [4]: 0.70%
